Laboratory results reported in patent US11752155B2, “Treatment of autism spectrum disorders, obsessive-compulsive disorder and anxiety disorders” (Rugen Holdings (Cayman) Limited, priority 2016, dated 2023).
pIC50, pKi: −log10 of the molar value. Read-outs that look alike come from different tables or passages of the source.

Tests used:
[1] = Clearance of compound from plasma after IP dosing in mice; type: in vivo, mouse
[2] = target: human NR1/NR2B (Homo sapiens (Human), UniProt Q05586+Q13224); experiment: NR2B antagonist activity: calcium influx (Fluo-4) assay in HEK293 cells; type: cell-based; details: read-out: NR2B IC50
Method in brief: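 HEK293 cells expressing NR1/NR2A or NR1/NR2B, loaded with fluo-4-AM, preincubated 10 min at room temperature with compound in Hanks buffer/0.1% BSA.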

[3] = target: human NR1/NR2A (Homo sapiens (Human), UniProt Q05586+Q12879); experiment: NR2A antagonist activity: calcium influx (Fluo-4) assay in HEK293 cells; type: cell-based; details: Table 1.1B; read-out: NR2A IC50
Procedure: Activation of the NR2A or NR2B subtype of NMDA receptor with glutamate as an agonist and glycine co-agonist on these cells results in calcium influx, which can be monitored with fluorescent indicator Fluo-4.
For experiments, the cells were seeded onto poly-D-lysine-coated 96-well black plates with clear bottom (Corning) at a density of ˜50,000 cells/well. After overnight culture, the growth medium was removed from the wells and the cells were incubated at 37° C. for 60 minutes in Hanks buffer containing 4 μM fluo-4-AM (Invitrogen) and 0.1% bovine serum albumin (BSA). After dye-loading, the cells were washed three times with Hanks buffer and incubated for 10 minutes at room temperature with various concentrations of test compounds prepared in Hanks buffer with 0.1% BSA. The cell plates were placed onto an FDSS Cell fluorescence reader (Hamamatsu). After 20 seconds of reading background fluorescence, agonist glutamate at final 100 µM and co-agonist glycine at final 50 μM were added to the cells to activate the receptor, and the resulting fluorescence changes were recorded and quantified. Based on the changes in fluorescence intensity, the pharmacological effect of test compounds was analyzed and the IC50 values derived from a non-linear least squares fitting of the concentration-dependent response to a standard logistic equation using Prism (Graphpad Software, Inc.): Amplitude=Max Amplitude/(1+(IC50/[antagonist])^n).

[4] = target: native rat brain NR2B receptors (Rattus norvegicus (Rat), UniProt P35439+Q00960); experiment: NR2B radioligand binding assay in rat brain using [3H] (E)-N1-(2-methoxybenzyl)-cinnamidine; details: rat brain NR2B receptors; mean of replicates; read-out: Arithmetic Mean Ki
Sequence of native rat brain NR2B receptors (Q00960 27-1482, other chains not shown): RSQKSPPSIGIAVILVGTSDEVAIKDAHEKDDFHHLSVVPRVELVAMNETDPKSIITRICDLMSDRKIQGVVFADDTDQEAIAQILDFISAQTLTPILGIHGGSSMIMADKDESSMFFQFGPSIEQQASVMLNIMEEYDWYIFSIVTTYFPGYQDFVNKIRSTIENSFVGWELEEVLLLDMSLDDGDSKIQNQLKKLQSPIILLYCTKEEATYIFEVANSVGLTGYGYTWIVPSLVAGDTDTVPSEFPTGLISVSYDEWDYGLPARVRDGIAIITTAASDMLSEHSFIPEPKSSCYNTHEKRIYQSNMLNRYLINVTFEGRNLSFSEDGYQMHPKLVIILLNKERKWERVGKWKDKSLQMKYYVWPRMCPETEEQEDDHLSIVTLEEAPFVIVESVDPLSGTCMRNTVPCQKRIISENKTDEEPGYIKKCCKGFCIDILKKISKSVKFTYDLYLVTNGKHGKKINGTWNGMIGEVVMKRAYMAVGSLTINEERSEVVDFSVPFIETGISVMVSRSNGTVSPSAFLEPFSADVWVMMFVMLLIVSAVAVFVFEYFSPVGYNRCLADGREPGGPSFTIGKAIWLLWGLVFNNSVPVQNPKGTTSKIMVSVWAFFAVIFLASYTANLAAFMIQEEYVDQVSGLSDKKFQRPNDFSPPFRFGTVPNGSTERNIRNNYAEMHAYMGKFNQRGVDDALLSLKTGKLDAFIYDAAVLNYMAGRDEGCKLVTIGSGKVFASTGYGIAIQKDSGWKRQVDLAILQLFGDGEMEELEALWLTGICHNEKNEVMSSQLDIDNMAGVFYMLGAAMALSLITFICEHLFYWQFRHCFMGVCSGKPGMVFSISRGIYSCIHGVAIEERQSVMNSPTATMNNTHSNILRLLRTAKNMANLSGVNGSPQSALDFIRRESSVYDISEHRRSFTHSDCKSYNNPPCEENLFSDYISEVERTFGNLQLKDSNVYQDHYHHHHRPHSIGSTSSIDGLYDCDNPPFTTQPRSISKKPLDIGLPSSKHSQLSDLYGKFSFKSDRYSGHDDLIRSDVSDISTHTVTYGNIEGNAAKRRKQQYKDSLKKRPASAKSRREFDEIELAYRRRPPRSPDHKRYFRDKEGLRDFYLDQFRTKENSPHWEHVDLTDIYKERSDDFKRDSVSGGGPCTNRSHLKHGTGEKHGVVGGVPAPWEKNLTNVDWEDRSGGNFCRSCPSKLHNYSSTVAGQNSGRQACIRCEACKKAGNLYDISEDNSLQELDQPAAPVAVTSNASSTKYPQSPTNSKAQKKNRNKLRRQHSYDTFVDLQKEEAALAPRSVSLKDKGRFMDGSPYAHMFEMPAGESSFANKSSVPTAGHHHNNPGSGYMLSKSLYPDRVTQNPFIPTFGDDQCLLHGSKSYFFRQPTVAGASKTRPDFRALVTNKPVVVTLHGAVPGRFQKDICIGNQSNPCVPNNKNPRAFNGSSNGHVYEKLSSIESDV

Sequence of human NR1/NR2B (Q13224 27-1484, other chains not shown): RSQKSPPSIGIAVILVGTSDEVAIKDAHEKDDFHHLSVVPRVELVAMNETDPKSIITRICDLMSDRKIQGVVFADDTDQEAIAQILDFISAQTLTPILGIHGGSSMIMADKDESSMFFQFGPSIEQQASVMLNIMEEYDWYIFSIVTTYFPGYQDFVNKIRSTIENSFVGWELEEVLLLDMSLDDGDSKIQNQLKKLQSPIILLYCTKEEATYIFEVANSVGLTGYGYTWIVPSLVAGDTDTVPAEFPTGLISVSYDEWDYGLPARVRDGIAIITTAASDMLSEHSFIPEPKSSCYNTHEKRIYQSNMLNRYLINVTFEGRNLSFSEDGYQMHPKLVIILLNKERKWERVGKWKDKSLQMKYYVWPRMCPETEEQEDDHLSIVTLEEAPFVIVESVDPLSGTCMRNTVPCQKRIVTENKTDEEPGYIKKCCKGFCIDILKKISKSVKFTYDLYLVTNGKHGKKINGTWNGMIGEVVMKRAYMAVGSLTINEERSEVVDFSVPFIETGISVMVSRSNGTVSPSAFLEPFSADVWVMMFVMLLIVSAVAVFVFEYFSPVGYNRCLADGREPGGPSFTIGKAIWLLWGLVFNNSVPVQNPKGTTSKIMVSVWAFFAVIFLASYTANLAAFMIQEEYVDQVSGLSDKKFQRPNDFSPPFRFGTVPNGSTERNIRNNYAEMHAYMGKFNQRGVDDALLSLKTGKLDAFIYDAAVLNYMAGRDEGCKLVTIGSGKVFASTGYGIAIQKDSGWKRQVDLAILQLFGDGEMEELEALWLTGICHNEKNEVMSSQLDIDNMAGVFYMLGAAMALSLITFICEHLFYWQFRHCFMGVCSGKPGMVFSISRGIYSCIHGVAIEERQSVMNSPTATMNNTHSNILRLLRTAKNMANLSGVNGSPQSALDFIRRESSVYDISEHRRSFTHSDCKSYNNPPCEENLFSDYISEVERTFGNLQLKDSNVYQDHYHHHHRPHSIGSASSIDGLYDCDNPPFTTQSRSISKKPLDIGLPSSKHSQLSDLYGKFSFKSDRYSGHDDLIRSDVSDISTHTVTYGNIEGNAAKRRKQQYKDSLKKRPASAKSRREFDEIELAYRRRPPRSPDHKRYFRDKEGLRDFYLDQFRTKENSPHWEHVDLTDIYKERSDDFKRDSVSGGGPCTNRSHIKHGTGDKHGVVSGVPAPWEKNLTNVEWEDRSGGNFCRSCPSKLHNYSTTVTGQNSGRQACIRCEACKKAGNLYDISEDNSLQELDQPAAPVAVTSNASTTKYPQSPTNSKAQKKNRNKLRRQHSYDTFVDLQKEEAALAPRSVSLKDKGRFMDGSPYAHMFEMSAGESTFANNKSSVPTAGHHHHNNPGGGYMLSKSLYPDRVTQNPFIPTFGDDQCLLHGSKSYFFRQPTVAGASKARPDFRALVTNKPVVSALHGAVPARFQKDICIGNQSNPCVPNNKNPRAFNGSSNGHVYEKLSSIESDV
Sequence of human NR1/NR2A (Q12879 23-1464, other chains not shown): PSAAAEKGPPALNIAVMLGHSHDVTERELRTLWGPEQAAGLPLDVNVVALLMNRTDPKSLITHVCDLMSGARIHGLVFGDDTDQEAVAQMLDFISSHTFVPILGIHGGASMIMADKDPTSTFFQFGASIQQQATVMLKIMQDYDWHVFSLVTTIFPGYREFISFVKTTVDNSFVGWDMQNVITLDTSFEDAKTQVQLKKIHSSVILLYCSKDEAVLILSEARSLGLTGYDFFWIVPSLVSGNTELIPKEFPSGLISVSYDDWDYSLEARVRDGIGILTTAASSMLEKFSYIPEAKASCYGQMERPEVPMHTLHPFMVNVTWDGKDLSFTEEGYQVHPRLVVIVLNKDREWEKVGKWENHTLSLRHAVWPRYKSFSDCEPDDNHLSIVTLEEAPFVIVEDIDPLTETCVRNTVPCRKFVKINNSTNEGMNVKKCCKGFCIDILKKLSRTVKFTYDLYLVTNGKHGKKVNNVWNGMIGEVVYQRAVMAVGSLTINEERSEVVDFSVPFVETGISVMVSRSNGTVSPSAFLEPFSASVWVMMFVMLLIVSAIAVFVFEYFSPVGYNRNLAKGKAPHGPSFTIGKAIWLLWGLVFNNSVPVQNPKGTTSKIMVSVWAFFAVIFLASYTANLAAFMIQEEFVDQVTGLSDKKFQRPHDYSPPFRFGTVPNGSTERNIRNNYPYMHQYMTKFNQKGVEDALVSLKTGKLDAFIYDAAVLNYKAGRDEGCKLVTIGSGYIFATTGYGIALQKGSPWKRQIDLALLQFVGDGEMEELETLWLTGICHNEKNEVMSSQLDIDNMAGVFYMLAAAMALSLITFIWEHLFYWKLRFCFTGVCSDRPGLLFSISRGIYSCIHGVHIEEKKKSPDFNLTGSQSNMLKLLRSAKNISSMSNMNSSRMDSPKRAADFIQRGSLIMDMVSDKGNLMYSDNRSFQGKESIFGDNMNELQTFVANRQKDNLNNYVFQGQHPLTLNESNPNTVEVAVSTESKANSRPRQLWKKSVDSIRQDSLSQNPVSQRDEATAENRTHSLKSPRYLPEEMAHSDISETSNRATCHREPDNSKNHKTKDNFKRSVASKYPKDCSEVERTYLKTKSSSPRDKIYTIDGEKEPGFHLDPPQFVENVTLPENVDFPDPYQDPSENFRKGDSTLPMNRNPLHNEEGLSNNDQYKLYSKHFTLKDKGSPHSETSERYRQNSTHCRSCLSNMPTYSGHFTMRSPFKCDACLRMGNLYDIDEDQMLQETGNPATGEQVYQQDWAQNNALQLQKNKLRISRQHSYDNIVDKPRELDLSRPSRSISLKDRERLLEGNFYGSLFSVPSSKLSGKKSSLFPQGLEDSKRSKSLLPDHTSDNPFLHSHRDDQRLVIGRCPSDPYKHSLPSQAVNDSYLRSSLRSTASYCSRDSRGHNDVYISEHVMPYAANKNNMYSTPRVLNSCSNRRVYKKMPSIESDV

time to clearance of the compound from plasma [1] | pIC50 ([2]; Table 1.1B) | pIC50 ([2]; Table 1.3B) | pIC50 ([2]; Table 1.4B) | pIC50 [3] | pKi [4] | Compound
about 8 hours |  |  |  |  |  | FC(F)c1ccc(C(F)(F)CN2CCC(Nc3ncnc4[nH]ccc34)CC2)cc1 [C-179^A′]
about 8 hours | 7.54 | 7.54 | 7.54 |  |  | Cc1ccc(COC(=O)N2CC[C@H](CNc3cnc(C)cn3)C(F)(F)C2)cc1 [E1-21.26^B′]
 | 7.68 | 7.68 | 7.68 | < 5.00 | 8.32 | Cc1ccc(COC(=O)N2CC[C@H](CNc3nccn4cnnc34)C(F)(F)C2)cc1 [E1-1.2^B′]
